The record followed here is patent publication US12453712B2, “Antitumoral use of cabazitaxel” (Sanofi Mature IP, priority 2009, dated 2025).

In this assay the test system is castration resistant metastatic prostate cancer. Nature of the assay: Randomized clinical study of cabazitaxel vs mitoxantrone, each with prednisone or prednisolone: efficacy. It is filed as in vivo, human. As for the experimental part: A clinical study was performed wherein patients received either treatment with cabazitaxel or the reference treatment based on mitoxantrone each combined with prednisone or prednisolone.
More specifically, patients over 18 years of age with metastatic castration resistant metastatic prostate cancer either measurable by RECIST criteria or non-measurable disease with rising PSA levels or appearance of new lesions, ECOG (Eastern Cooperative Oncology Group) performance stage 0-2, and adequate organ function (patients had to have neutrophils >1,500 cells/mm^3, platelets >100,000 cells/mm^3, hemoglobin >10 g/dL, creatinine <1.5×upper limit of normal (ULN), total bilirubin <1×ULN, AST <1.5×ULN, and ALT <1.5×ULN) who had had prior hormone therapy, chemotherapy, and radiotherapy, but had progressive during or after docetaxel treatment (cumulative dose ≥225 mg/m^2) were randomized to 10 mg/day of prednisone with either mitoxantrone 12 mg/m^2 or cabazitaxel 25 mg/m^2, both administered every 3 weeks.
Patients with a history of congestive heart failure, or myocardial infarction within the last 6 months, or patients with uncontrolled cardiac arrhythmias, angina pectoris, and/or hypertension were not included in the study.
720 patients were planned to be included in the clinical study: 360 in each cabazitaxel+prednisone and mitoxantrone+prednisone group. Seven hundred and fifty-five patients (755) (median age 68; 84% white) were actually enrolled, 378 in the cabazitaxel and prednisone/prednisolone group and 377 in the mitoxantrone and prednisone/prednisolone group. The maximal number of treatment cycles was 10 for cabazitaxel and 10 for mitoxantrone. The median number of treatment cycles was 6 for cabazitaxel and 4 for mitoxantrone. The median prior dose of docetaxel treatment was 576 mg/m^2 for the cabazitaxel group and 529 mg/m^2 for the mitoxantrone group. Median follow-up was 12.8 months.
The measurements of the results are performed via the same tests as at inclusion. MRI and spiral computed tomographic (CT) scans are preferably used.
The results are evaluated according to the following criteria (cf RECIST guideline): • overall survival (OS): the time from inclusion to the study to the date of death complete response (CR): disappearance of the lesions • partial response (PR): at least 30% reduction of the largest diameter of the lesion progression (PD): at least 20% increase in the sum of the largest diameter of the lesion or appearance of one or more new lesions • stable disease (SD): reduction of the tumour insufficient to be included in PR and increase of the tumour insufficient to be included in PD.
The confirmations of the measurements are made at least 4 weeks after the response criterion has been established for the first time.
The progression-free survival (PFS) is the time from inclusion in the study and the date of progression or death when the progression is either an increase of the PSA, or of the tumour, or of the pain.

`CO[C@H]1C(=O)[C@]2(C)[C@@H](OC)C[C@H]3OC[C@@]3(OC(C)=O)[C@H]2[C@H](OC(=O)c2ccccc2)[C@]2(O)C[C@H](OC(=O)[C@H](O)[C@@H](NC(=O)OC(C)(C)C)c3ccccc3)C(C)=C1C2(C)C` [cabazitaxel, 4α-acetoxy-2α-benzoyloxy-5β,20-epoxy-1β-hydroxy-7β,10β-dimethoxy-9-oxo-11-taxen-13α-yl (2R,3S)-3-tert-butoxycarbonyl-amino-2-hydroxy-3-phenylpropionate]: where the note is “CbzP vs MP, intention-to-treat”, the “Overall survival Hazard ratio (95% CI)” value was determined as 0.70 and the “PFS Hazard ratio (95% CI)” value came out at 0.74. The “reduction in risk of death” value (cabazitaxel vs mitoxantrone, corresponding to hazard ratio 0.70) is reported as 30%. Under “intention-to-treat”, the “Discontinuation of study treatment for disease progression, (%)” value is listed as “(47.6) %”. Also, for the setting “intention-to-treat, N = 377 mitoxantrone, N = 378 cabazitaxel”, the “Discontinuation of study treatment for disease progression, no.” value is 180. The “Overall survival Median” value (intention-to-treat, 25 mg/m^2 cabazitaxel or 12 mg/m^2 mitoxantrone every 3 weeks with prednisone) came out at 15.1 months. Also, the “PFS Median” value (intention-to-treat, earliest progression in tumor, PSA or pain) is 2.8 months.
